Among the data in patent publication US10570117B2, “Phenylimidazole compound” (Otsuka Pharmaceutical Factory, Inc., priority 2015, dated 2020) are melting point, fold induction and solubility values, retold here.

Broadly, the melting point is the temperature, or range, at which the solid turns liquid.

Each structure is given as a SMILES string. Values after ≈ are worked out from the molar mass of the structure shown. Like-named read-outs stand apart in the source and are kept apart here.

Data set [1] has as its system lipoprotein lipase (LPL) gene. Nature of the data set: LPL mRNA elevating action (RT-PCR quantification of LPL mRNA in C2Cl2 cells). The format is cell-based, mouse. As to conditions: Mus musculus, 24 h, compound 10 μM, ratio relative to the amount of LPL mRNA in cells with DMSO only, read-out: Rate of increase in LPL mRNA. Here is the method:
LPL mRNA Elevating Action
C2Cl2 cells (cell strain derived from striated muscle of mouse) were seeded in 96-well plates using a DMEM medium (Gibco) (containing 2 mM L-glutamine and 10% fetal bovine serum). After the cells were grown, the medium was removed. Subsequently, media obtained by adding dimethyl sulfoxide (DMSO) solutions of the compounds to the same medium as described above to a concentration of 10 μM were individually added to the cells and allowed to stand for 24 hours. The compound-containing media were removed, and the plates were washed with phosphate buffered saline. Thereafter, the remaining cells were lysed and subjected to a reverse transcription polymerase chain reaction (RT-PCR reaction) to obtain cDNA. Primers specific to lipoprotein lipase (LPL) gene, a necessary enzyme, etc., were added to the obtained cDNA. The mixture was set in 7500 Fast Real Time PCR System produced by Applied Biosystem to perform a PCR reaction (20 cycles) and the amount of LPL mRNA amplified was quantified. The LPL mRNA elevating action of each compound in the test cells was indicated as the ratio relative to the amount of LPL mRNA in cells allowed to stand in a medium to which only DMSO was added, with the amount being defined as 1.
As Comparative Example 1, a test was performed in the same manner as above, using a compound disclosed as the compound of Example 57 in WO2010/090200.

Data set [2] in a line: Solubility in gastric juice or intestinal juice model fluid (precipitation method using DMSO). As to conditions: room temperature. The format is physicochemical. In short, it runs like this: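 Dissolved amount (μg/mL) quantified by UV of filtrate versus pre-made calibration curves. Precipitation approach: DMSO solutions spiked into pH 1.2 (JP 1st fluid) or pH 6.8 (JP 2nd fluid) medium, shaken at room temperature for 24 h before insolubles were filtered off.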

Where [3] appears, read: pH 1.2, simulated gastric fluid, kinetic from dmso stock, 1st fluid for Disintegration Test of Japanese Pharmacopoeia (pH: 1.2), read-out: Solubility (μg/mL) 1st fluid.
Setting [4] is: pH 6.8, kinetic from dmso stock, 2nd fluid for Disintegration Test of Japanese Pharmacopoeia (pH: 6.8), read-out: Solubility (μg/mL) 2nd fluid.

`COc1cc(OCc2ccnc(C(F)(F)F)c2)ccc1-c1[nH]c(-c2ccc(Cl)nc2)nc1Cl` [Example 242]: the melting point lay in the range of 236 to 239 °C. Also, the fold induction at 10 µM in data set [1] is 2.38.
Compound `COc1cc(OCc2ccc(C(F)(F)F)cc2)ccc1-c1[nH]c(-c2ccc(F)nc2)nc1Cl` [Example 176] returned a melting point of 163 to 166 °C. Besides, the fold induction at 10 µM in data set [1] amounted to 2.83.
For the compound `COc1cc(OCc2ccc(C(F)(F)F)nc2)ccc1-c1nc(-c2ccc(Cl)nc2)[nH]c1Br` [Example 222], the melting point was 222 to 223 °C (dec.). Also, the fold induction at 10 µM in data set [1] stood at 2.89.
`COc1cc(OCc2cccc(C(F)(F)F)n2)ccc1-c1[nH]c(-c2ccc(F)nc2)nc1Cl` [Example 172]: the melting point is 189 to 191 °C. The fold induction at 10 µM in data set [1] came out at 3.12.
In the case of `COc1cc(OCc2ccc(F)cc2F)ccc1-c1cnc(-c2ccc(F)nc2)[nH]1` [Example 142], the melting point fell in the range of 168 to 173 °C. Further, the fold induction at 10 µM in data set [1] is 2.27.
For `COc1cc(OCc2ccc(Br)cc2F)ccc1-c1[nH]c(-c2ccc(F)nc2)nc1Br` [Example 260], the melting point is 158 to 161 °C. Further, the fold induction at 10 µM in data set [1] stood at 2.95.
As to `COc1cc(OCc2ncc(C(F)(F)F)cc2Br)ccc1-c1[nH]c(-c2ccc(F)nc2)nc1Br` [Example 254], the melting point was 148 to 170 °C. In addition, in data set [1], the fold induction at 10 µM amounted to 2.71.
For the compound `COc1cc(OCc2cccc(C(F)(F)F)n2)ccc1-c1[nH]c(-c2ccc(F)nc2)nc1Br` [Example 273], the melting point is 200 to 202 °C (dec.). In data set [1], the fold induction at 10 µM was determined as 2.5.
Compound `COc1cc(OCc2ncc(Cl)cc2Br)ccc1-c1cnc(-c2ccc(F)nc2)[nH]1` [Example 134] had a melting point of 176 to 180 °C. In data set [1], the fold induction at 10 µM is 2.85.
In turn, `COc1cc(OCc2ncc(Cl)cc2C(F)(F)F)ccc1-c1[nH]c(-c2ccc(F)nc2)nc1Cl` [Example 280] showed a melting point of 156 to 158 °C. Further, the fold induction at 10 µM in data set [1] turned out to be 2.91.
`COc1cc(OCc2ccc(C(F)(F)F)nc2)ccc1-c1nc(-c2ccc(Cl)nc2)[nH]c1Cl` [Example 229] yielded a melting point of 205 to 208 °C. The fold induction at 10 µM in data set [1] worked out at 2.62.
Compound `COc1cc(OCc2ccc(Cl)cc2F)ccc1-c1[nH]c(-c2ccc(F)nc2)nc1Br` [Example 259] displayed a melting point of 165 to 167 °C. Further, the fold induction at 10 µM in data set [1] amounted to 2.93.
The compound `COc1cc(OCc2cncc(C(F)(F)F)c2)ccc1-c1[nH]c(-c2ccc(Cl)nc2)nc1Br` [Example 252] displayed a melting point of 186 to 199 °C. The fold induction at 10 µM in data set [1] turned out to be 2.58.
The compound `COc1cc(OCc2ccc(F)cc2F)ccc1-c1[nH]c(-c2ccc(F)nc2)nc1Cl` [Example 285] showed a melting point of 163 to 165 °C. For the same compound, the fold induction at 10 µM in data set [1] is 3.01.
Consider `COc1cc(OCc2cccnc2C(F)(F)F)ccc1-c1[nH]c(-c2ccc(F)nc2)nc1Br` [Example 278], for which the melting point was in the range of 176 to 179 °C. Moreover, the fold induction at 10 µM in data set [1] is 2.95.
For `COc1cc(OCc2ccnc(C(F)(F)F)c2)ccc1-c1[nH]c(-c2ccc(F)nc2)nc1Br` [Example 271] the same measures were 223 to 225 °C (dec.) and 3.39.
With `COc1cc(OCc2ncc(C(F)(F)F)cc2Cl)ccc1-c1[nH]c(-c2ccc(F)nc2)nc1Br` [Example 261], the melting point was 179 to 180 °C. For the same compound, the fold induction at 10 µM in data set [1] was determined as 4.08.
In turn, `COc1cc(OCc2cncc(C(F)(F)F)c2)ccc1-c1[nH]c(-c2ccc(Cl)nc2)nc1Cl` [Example 241] had a melting point of 198 to 201 °C. The fold induction at 10 µM in data set [1] turned out to be 2.45.
For the compound `COc1cc(OCc2ccc(C(F)(F)F)nc2)ccc1-c1c(Br)nc(-c2ccc(Cl)nc2)n1C` [Example 299], the melting point fell in the range of 140 to 142 °C. Further, the fold induction at 10 µM in data set [1] was determined as 2.97.
The matching figures for `COc1cc(OCc2ncc(C(F)(F)F)cc2Cl)ccc1-c1[nH]c(-c2ccc(F)nc2)nc1Cl` [Example 262]: 160 to 162 °C and 3.61.
For `COc1cc(-c2cnc(C(C)C)[nH]2)ccc1OCc1ncc(C(F)(F)F)cc1F` [Example 382], the figures for the solubility at 24 h in data set [2] (setting [3]) and in data set [2] (setting [4]) were 74.8 µg/mL (≈ 183 µM) and 62.1 µg/mL (≈ 152 µM), respectively. Also, the fold induction at 10 µM in data set [1] worked out at 1.41.
The matching figures for `COc1cc(OCc2ccc(C(F)(F)F)nc2)ccc1-c1nc(C2CCCCC2)[nH]c1C` [Example 48]: over 89 µg/mL, 80.8 µg/mL (≈ 181 µM) and 3.02.
For `COc1cc(OCc2ccc(C(F)(F)F)nc2)ccc1-c1cnc(C2CCC(F)(F)C2)[nH]1` (stereo not shown) [Example 3], the values for the solubility at 24 h in data set [2] (setting [3]) and in data set [2] (setting [4]) were 87.5 µg/mL (≈ 193 µM) and 1 µg/mL (≈ 2.21 µM), respectively. The fold induction at 10 µM in data set [1] is 2.48.
The matching figures for `COc1cc(-c2cnc(C3CCCC3)[nH]2)ccc1OCc1ncc(C(F)(F)F)cc1F` [Example 366]: 79.2 µg/mL (≈ 182 µM), 24.7 µg/mL (≈ 56.7 µM) and 1.95.
With `Fc1ccc(-c2ncc(-c3ccc(OCc4ncc(C(F)(F)F)cc4F)cc3OCc3ccccc3)[nH]2)cn1` [Example 398, 2-[(3-(benzyloxy)-4-(2-(6-fluoropyridin-3-yl)-1H-imidazol-5-yl)phenoxy)methyl]-3-fluoro-5-(trifluoromethyl)pyridine], the results for the solubility at 24 h in data set [2] (setting [3]) and in data set [2] (setting [4]) were 79.2 µg/mL (≈ 147 µM) and 39.7 µg/mL (≈ 73.7 µM), respectively. In addition, the fold induction at 10 µM in data set [1] amounted to 2.22.
As for `COc1cc(-c2cnc(-c3ccc(F)nc3)[nH]2)ccc1OC(C)c1ncc(C(F)(F)F)cc1F` (stereo not shown) [Example 392], the solubility at 24 h was 60.8 µg/mL (≈ 128 µM) in data set [2] (setting [3]) and under 0.3 µg/mL in data set [2] (setting [4]). Also, in data set [1], the fold induction at 10 µM turned out to be 1.73.
Turning to `COc1cc(OCc2ccc(C(F)(F)F)nc2)c(C)cc1-c1cnc(C2CCC(F)(F)CC2)[nH]1` [Example 12], the solubility at 24 h in data set [2] (setting [3]) is 15.6 µg/mL (≈ 32.4 µM); in data set [2] (setting [4]), under 1.7 µg/mL. Besides, in data set [1], the fold induction at 10 µM was found to be 2.23.
In the case of `CCCCOC(C)n1cc(-c2ccc(OCc3ncc(C(F)(F)F)cc3F)cc2OC)nc1-c1ccc(F)nc1` (stereo not shown) [Example 389], the results for the solubility at 24 h in data set [2] (setting [3]) and in data set [2] (setting [4]) were 96 µg/mL (≈ 171 µM) and 1.8 µg/mL (≈ 3.2 µM), respectively. Further, the fold induction at 10 µM in data set [1] was found to be 1.63.
For `COc1cc(OCc2ncc(C(F)(F)F)cc2F)ccc1-c1cnc(C2CC2)[nH]1` [Example 375], the solubility at 24 h in data set [2] (setting [3]) is 73.9 µg/mL (≈ 181 µM); in data set [2] (setting [4]), 72.5 µg/mL (≈ 178 µM). Further, the fold induction at 10 µM in data set [1] was 1.83.
`COc1cc(-c2cnc(-c3ccc(F)nc3)[nH]2)ccc1OCc1ncc(C(F)(F)F)cc1F` [Example 324]: the solubility at 24 h was 20.2 µg/mL (≈ 43.7 µM) in data set [2] (setting [3]) and 0.8 µg/mL (≈ 1.73 µM) in data set [2] (setting [4]). Also, the fold induction at 10 µM in data set [1] came to 1.95.
For the compound `COc1c(OCc2ccc(C(F)(F)F)nc2)ccc(-c2cnc(C3CCC(F)(F)CC3)[nH]2)c1OC` [Example 14], the solubility at 24 h in data set [2] (setting [3]) is over 99 µg/mL; in data set [2] (setting [4]), under 0.4 µg/mL. The fold induction at 10 µM in data set [1] worked out at 5.42.
`COc1cc(-c2cnc(C3CCC3)[nH]2)ccc1OCc1ncc(C(F)(F)F)cc1F` [Example 372]: the solubility at 24 h in data set [2] (setting [3]) was 80.4 µg/mL (≈ 191 µM); in data set [2] (setting [4]), 33.5 µg/mL (≈ 79.5 µM). Further, the fold induction at 10 µM in data set [1] was determined as 1.95.
Regarding `COc1cc(OCc2cnc(C)cn2)ccc1-c1nc(-c2ccc(Cl)nc2)[nH]c1Cl` [Example 219], the results for the solubility at 24 h in data set [2] (setting [3]) and in data set [2] (setting [4]) were 7.5 µg/mL (≈ 17 µM) and under 1.6 µg/mL, respectively. Also, the fold induction at 10 µM in data set [1] came to 2.42.
Consider `COc1cc(OCc2ccc(C(F)(F)F)cn2)ccc1-c1nc(-c2ccc(Cl)nc2)n(CC2CC2)c1C` [Example 156], for which the results for the solubility at 24 h in data set [2] (setting [3]) and in data set [2] (setting [4]) were 104 µg/mL (≈ 197 µM) and 3.6 µg/mL (≈ 6.81 µM), respectively. The fold induction at 10 µM in data set [1] was found to be 3.27.
For `COc1cc(OCc2ncc(C(F)(F)F)cc2F)ccc1-c1cnc(C2CCC(F)(F)C2)[nH]1` (stereo not shown) [Example 340], the solubility at 24 h was 93.8 µg/mL (≈ 199 µM) in data set [2] (setting [3]) and 8.1 µg/mL (≈ 17.2 µM) in data set [2] (setting [4]). The fold induction at 10 µM in data set [1] worked out at 2.26.
Regarding `COc1cc(O)ccc1-c1cnc(C2CCC(F)(F)CC2)[nH]1` [Example 338], the values for the solubility at 24 h in data set [2] (setting [3]) and in data set [2] (setting [4]) were over 62 µg/mL and 59.7 µg/mL (≈ 194 µM), respectively. The fold induction at 10 µM in data set [1] was found to be 1.32.
`COc1cc(-c2cnc(CCC(F)(F)F)[nH]2)ccc1OCc1ncc(C(F)(F)F)cc1F` [Example 391]: the solubility at 24 h in data set [2] (setting [3]) was 1.1 µg/mL (≈ 2.37 µM); in data set [2] (setting [4]), 7.1 µg/mL (≈ 15.3 µM). Further, the fold induction at 10 µM in data set [1] turned out to be 1.58.
Consider `COc1cc(OC(C)c2ccc(C(F)(F)F)cn2)ccc1-c1c[nH]c(-c2ccc(F)nc2)n1` (stereo not shown) [Example 117], for which the results for the solubility at 24 h in data set [2] (setting [3]) and in data set [2] (setting [4]) were 80.2 µg/mL (≈ 175 µM) and 2.6 µg/mL (≈ 5.67 µM), respectively. For the same compound, the fold induction at 10 µM in data set [1] is 3.38.
